In ChEMBL document CHEMBL2034941, “Toward Overcoming Staphylococcus aureus Aminoglycoside Resistance Mechanisms with a Functionally Designed Neomycin Analogue” (2011):
≈ marks a conversion by molar mass, not a printed value.

Tests used:
Format in all cases: functional
[1] = tested on: Staphylococcus aureus; assay: Antimicrobial activity against Staphylococcus aureus harboring APH(2'''') and AAC(6') enzymes
[2] = tested on: Staphylococcus aureus; assay: Antimicrobial activity against Staphylococcus aureus ATCC 29213
[3] = tested on: Staphylococcus aureus; assay: Antimicrobial activity against Staphylococcus aureus harboring ANT(4')-1 enzyme
[4] = tested on: Staphylococcus aureus; assay: Antimicrobial activity against Staphylococcus aureus harboring APH(3'/5'''')-3 enzyme
[5] = tested on: Staphylococcus aureus; assay: Ratio of amikacin MIC90 to compound MIC90 for methicillin-resistant Staphylococcus aureus clinical isolate
[6] = tested on: Staphylococcus aureus; assay: Ratio of amikacin MIC50 to compound MIC50 for methicillin-resistant Staphylococcus aureus clinical isolate
[7] = tested on: Staphylococcus aureus; assay: Antimicrobial activity against methicillin-resistant Staphylococcus aureus clinical isolate

Compound `NCC[C@H](O)C(=O)N[C@@H]1C[C@H](N)[C@@H](O[C@H]2O[C@H](CO)[C@@H](O)[C@H](O)[C@H]2N)[C@H](O[C@@H]2O[C@H](CO)[C@@H](O[C@H]3O[C@@H](CN)[C@@H](O)[C@H](O)[C@H]3N)[C@H]2O)[C@H]1O` has an MIC [1] greater than 32 µg/mL, an MIC [2] of 2 µg/mL (≈ 2.79 µM) and an MIC [3] greater than 64 µg/mL. The MIC [4] was 32 µg/mL (≈ 44.6 µM).

`NC[C@H]1CC[C@@H](N)[C@@H](O[C@H]2[C@@H](O)[C@H](O[C@@H]3[C@@H](O)[C@H](N)C[C@H](N)[C@H]3O[C@H]3O[C@H](CO)CC[C@H]3N)O[C@@H]2CO)O1` showed an MIC [1] greater than 32 µg/mL, an MIC [2] of 2 µg/mL (≈ 3.63 µM) and an MIC [3] of 4 µg/mL (≈ 7.25 µM).

`NCC[C@H](O)C(=O)N[C@@H]1C[C@H](N)[C@@H](O[C@H]2O[C@H](CO)CC[C@H]2N)[C@H](O[C@@H]2O[C@H](CO)[C@@H](O[C@H]3O[C@@H](CN)CC[C@H]3N)[C@H]2O)[C@H]1O` gave an MIC [1] of 16 µg/mL (≈ 24.5 µM), an MIC [2] of 1 µg/mL (≈ 1.53 µM) and an MIC [3] of 8 µg/mL (≈ 12.3 µM).

In the case of `NC[C@@H]1CC[C@@H](N)[C@@H](O[C@H]2[C@H](O[C@@H]3O[C@H](CO)[C@@H](O[C@H]4O[C@@H](CN)CC[C@H]4N)[C@H]3O)[C@@H](O)[C@H](N)C[C@@H]2N)O1`, the MIC [1] was greater than 64 µg/mL, the MIC [2] was 0.5 µg/mL (≈ 0.908 µM) and the MIC [3] was 0.5 µg/mL (≈ 0.908 µM). The MIC [4] was 32 µg/mL (≈ 58.1 µM).

`NCC[C@H](O)C(=O)N[C@@H]1C[C@H](N)[C@@H](O[C@H]2O[C@H](CN)CC[C@H]2N)[C@H](O[C@@H]2O[C@H](CO)[C@@H](O[C@H]3O[C@@H](CN)CC[C@H]3N)[C@H]2O)[C@H]1O` gave a Ratio [5] greater than 64, a Ratio [6] greater than 64 and an MIC [1] of 2 µg/mL (≈ 3.07 µM). It also gave an MIC [2] of 0.5 µg/mL (≈ 0.767 µM), an MIC50 [7] of 0.25 µg/mL (≈ 0.384 µM) and an MIC90 [7] of 0.5 µg/mL (≈ 0.767 µM). The MIC [3] was 1 µg/mL (≈ 1.53 µM) and the MIC [4] was 1 µg/mL (≈ 1.53 µM).

In the case of `NCC[C@H](O)C(=O)N[C@@H]1C[C@H](N)[C@@H](O[C@H]2O[C@H](CN)[C@@H](O)[C@H](O)[C@H]2O)[C@H](O)[C@H]1O[C@H]1O[C@H](CO)[C@@H](O)[C@H](N)[C@H]1O` [AMIKACIN], the MIC [1] was 64 µg/mL (≈ 109 µM), the MIC [2] was 4 µg/mL (≈ 6.83 µM) and the MIC50 [7] was 32 µg/mL (≈ 54.6 µM). For the same compound, the MIC90 [7] was greater than 64 µg/mL, the MIC [3] was 64 µg/mL (≈ 109 µM) and the MIC [4] was 8 µg/mL (≈ 13.7 µM).

For `NC[C@@H]1O[C@H](O[C@H]2[C@@H](O)[C@H](O[C@@H]3[C@@H](O)[C@H](N)C[C@H](N)[C@H]3O[C@H]3O[C@H](CN)[C@@H](O)[C@H](O)[C@H]3N)O[C@@H]2CO)[C@H](N)[C@@H](O)[C@@H]1O` [FRAMYCETIN], the MIC [1] was greater than 64 µg/mL, the MIC [2] was 0.5 µg/mL (≈ 0.813 µM) and the MIC [3] was greater than 64 µg/mL. The MIC [4] was greater than 64 µg/mL.

Work on `CN[C@@H]1[C@@H](O)[C@@H](O[C@@H]2[C@@H](O)[C@H](O[C@H]3O[C@H]([C@@H](C)NC)CC[C@H]3N)[C@@H](N)C[C@H]2N)OC[C@]1(C)O` [GENTAMICIN C1] yielded an MIC [1] greater than 64 µg/mL, an MIC [2] of 0.5 µg/mL (≈ 1.05 µM) and an MIC50 [7] greater than 32 µg/mL. It also gave an MIC90 [7] greater than 32 µg/mL, an MIC [3] of 0.5 µg/mL (≈ 1.05 µM) and an MIC [4] of 0.5 µg/mL (≈ 1.05 µM).

`NC[C@@H]1O[C@H](O[C@H]2[C@@H](O)[C@H](O[C@@H]3[C@@H](O)[C@H](N)C[C@H](N)[C@H]3O[C@H]3O[C@H](CO)[C@@H](O)[C@H](O)[C@H]3N)O[C@@H]2CO)[C@H](N)[C@@H](O)[C@@H]1O` [PAROMOMYCIN] gave an MIC [1] greater than 64 µg/mL, an MIC [2] of 2 µg/mL (≈ 3.25 µM) and an MIC [3] greater than 64 µg/mL. The MIC [4] was greater than 64 µg/mL.

Work on `NC[C@H]1O[C@H](O[C@H]2[C@H](O[C@@H]3O[C@H](CO)[C@@H](O)[C@H]3O)[C@@H](O)[C@H](N)C[C@@H]2N)[C@H](N)[C@@H](O)[C@@H]1O` [RIBOSTAMYCIN] yielded an MIC [1] greater than 64 µg/mL, an MIC [2] of 8 µg/mL (≈ 17.6 µM) and an MIC [3] greater than 64 µg/mL. The MIC [4] was greater than 64 µg/mL.

Work on butirosin yielded an MIC [1] greater than 32 µg/mL, an MIC [2] of 8 µg/mL and an MIC [3] greater than 32 µg/mL. For the same compound, the MIC [4] was greater than 32 µg/mL.
